Experimental data as given in US20210038587A1, “METHODS AND COMPOSITIONS FOR TREATING NON-ERK MAPK PATHWAY INHIBITOR-RESISTANT CANCERS” (BIOMED VALLEY DISCOVERIES, INC., priority 2013, published 2021).
Read-outs that look alike come from different tables or passages of the source. Each block holds one compound with its values, some of them ahead of it.

Assays:
[1] = system: RKO Parental; experiment: Single agent proliferation assay (CellTiter-Glo, 96 h); type: cell-based
Experimental: (§1) For assessment of drug sensitivity in cell-line models of acquired resistance, drug sensitivity of dose-escalated A375 cells and isogenic RKO cells was assessed in 96-hour proliferation assays. […] For the A375 assays Alamar blue (ThermoFisher) 10% (v/v) was added and incubated for 4 h, and fluorescent product was then detected using a BMG FLUOstar.
(§2) Compounds were prepared from DMSO stocks to give the desired final concentrations. The final DMSO concentration was constant at 0.1%. […] CellTiter-Glo® reagent (Promega, Madison, Wis.) was added according to manufacturer's instructions and luminescence detected using the BMG FLUOstar plate reader (BMG Labtech, Ortenberg, Germany).

[2] = system: A375 cells; experiment: Proliferation assay (Alamar Blue, 96 h) in parental A375 cells; type: cell-based; conditions: Homo sapiens, A-375, Parental A375
[3] = system: RKO MEK1 (Q56P/+) Clone 2; experiment: Single agent proliferation assay (CellTiter-Glo, 96 h); type: cell-based; conditions: RKO MEK1 Q56P/+ Cl.2
Experimental: as §1
(§3) RKO MEK1 Q56P Isogenic cells were produced by Horizon Discovery (Cambridge, UK; #HD 106-019) using a recombinant AAV-mediated gene targeting strategy. Briefly, rAAV virus was generated following transfection of the appropriate targeting vector and helper vectors in HEK293T cells, purified using an AAV purification kit (Virapur, San Diego, USA) and titrated using qPCR. Parental homozygous RKO cells (homozygous wild type for MEK1) were then infected with rAAV virus and clones that had integrated the selection cassette were identified by G418 selection and expanded. Correctly targeted clones that were heterozygous for knock-in of the MEK1 Q56P point mutation into a single allele were identified by PCR and sequencing.
as §2

[4] = system: RKO MEK1 (Q56P/+) Clone 1; experiment: as above; type: cell-based; conditions: RKO MEK1 Q56P/+ Cl.1
Experimental: as §1, §3, §2

[5] = system: dose-escalated A375 cells; experiment: Proliferation assay (Alamar Blue, 96 h) in dose-escalated A375 cell lines; type: cell-based, human; conditions: for Fold Change of IC50: BRAFi- + MEKi-resistant versus parental A375; for IC50: Homo sapiens
[6] = system: A375 xenografts; experiment: Antitumor activity in A375 xenografts, monotherapy; type: in vivo, mice
Experimental: (§4) For measurement of antitumor activity in A375 xenografts, xenografts were initiated with A375 cells maintained by serial subcutaneous transplantation in female athymic nude mice. Each test mouse received an A375 tumor fragment (1 mm^3) implanted subcutaneously in the right flank. Once tumors reached target size (80-120 mm^3), animals were randomized into treatment and control groups, and drug treatment was initiated.
Oral temozolomide was administered as a positive reference compound at 75 or 175 mg/kg once daily (QD) for a total of five treatments (QD×5).

[7] = system: upstaged A375 xenografts; experiment: Upstaged A375 xenograft model, BVD-523 in combination with dabrafenib; type: in vivo, mice; conditions: 50 mg/kg BID; 11 evaluable mice
Experimental: (§5) Combination dosing was stopped on Day 20 to monitor for tumor regrowth. Animals were monitored individually and euthanized when each tumor reached an endpoint volume of 2000 mm^3, or the final day (Day 45), whichever came first, and median time to endpoint (TTE) calculated. The combination was also evaluated in an upstaged A375 model where larger tumors in the range 228-1008 mm^3 were evaluated. Here, mice were randomized into 1 group (Group 1) of 14 and 4 groups (Groups 2-5) of 20. […] Tumors were measured twice weekly. Combination dosing was stopped on Day 42 to monitor for tumor regrowth through study end (Day 60). Treatment outcome was determined from % TGD, defined as the percent increase in median TTE for treated versus control mice, with differences between groups analyzed via log rank survival analysis. […] Mice were also monitored for CR and PR responses. Animals with a CR at the end of the study were additionally classified as TFS.

[8] = system: BRAF^V600-mutant melanoma; conditions: cited from earlier work
[9] = system: patient-derived xenograft (AT052C); experiment: Patient-derived xenograft from vemurafenib-refractory BRAFV600E melanoma; type: in vivo, mice
[10] = system: A375 xenografts; experiment: A375 xenografts, BVD-523 in combination with dabrafenib; type: in vivo, mice; conditions: 100 mg/kg QD
Excerpt: as §4, §5

[11] = system: A375 cells; experiment: Dose escalation study (acquisition of resistance); type: cell-based, human; conditions: progressively increasing concentrations
[12] = system: SW48 cell lines heterozygous for knock-in of mutant KRAS; experiment: Proliferation assay in isogenic SW48 lines with knock-in of mutant KRAS (Alamar blue, 96 h); type: cell-based; conditions: versus control SW48
Experimental: Isogenic SW48 cell lines heterozygous for knock-in of mutant KRAS (De Roock et al 2010, JAMA, 304, 1812-1820) were obtained from Horizon Discovery (Catalogue numbers; HD 103-002, HD 103-006 HD 103-007, HD 103-009, HD 103-010, HD 103-011, HD 103-013). […] Viability was then assessed using Alamar blue.

[13] = A-375, BRAFi- + MEKi-resistant (dabrafenib and trametinib combination-resistant) A375 population, read-out: IC50
[14] = A-375, Month 1, Dab/Tram-escalated line, read-out: Relative IC50
[15] = A-375, Month 1, Tram/523-escalated line, read-out: Relative IC50
[16] = A-375, Month 2, Dab/Tram-escalated line, read-out: Relative IC50
[17] = A-375, Month 2, Tram/523-escalated line, read-out: Relative IC50
[18] = A-375, Month 3, Dab/Tram-escalated line, read-out: Relative IC50
[19] = A-375, Month 3, Tram/523-escalated line, read-out: Relative IC50

IC50 [5, 13]: 2.7 nM
IC50 [5, 14]: 3.9 nM
IC50 [5, 15]: 2.5 nM
IC50 [5, 16]: 12.6 nM
IC50 [5, 17]: 4.6 nM
IC50 [5, 18]: 2.7 nM
IC50 [5, 19]: 11.2 nM
Structure (SMILES): CC(=O)Nc1cccc(-n2c(=O)n(C3CC3)c(=O)c3c(Nc4ccc(I)cc4F)n(C)c(=O)c(C)c32)c1 [Trametinib]
IC50 [1]: 6 nM
IC50 [2]: 0.2 nM
IC50 [3]: 80 nM
IC50 [4]: 93 nM
Fold Change of IC50 [5]: +13.5 fold
Fold Change of IC50 ([5]; listed as trametinib): 13.5 fold

Structure (SMILES): Cn1nnc2c(C(N)=O)ncn2c1=O [temozolomide]
tumor growth inhibition (TGI) ([6]; 75 mg/kg QD×5): 34%
tumor growth inhibition (TGI) ([6]; 175 mg/kg QD×5): 78%

Structure (SMILES): CC(C)(C)c1nc(-c2cccc(NS(=O)(=O)c3c(F)cccc3F)c2F)c(-c2ccnc(N)n2)s1 [Dabrafenib]
CRs [7]: 5
PRs [7]: 5
TFS [7]: 3
overall survival ([8]; Long et al. 2015, BRAF^V600E/K): 18.7 months
overall response ([8]; Long et al. 2015): 53%
progression-free survival (PFS) ([8]; Long et al. 2015): 8.8 months
response rate ([8]; phase III, single agent versus dacarbazine): approximately 50%
TGI ([9]; 50 mg/kg BID): 22%
activity in patient-derived line ST052C ([9]; dabrafenib 50 mg/kg BID, BVD-523 100 mg/kg BID): acquired cross-resistance
PR [10]: 1
emergence of drug-resistant cell lines [11]: readily obtained
IC50 ([5]; A-375, BRAFi- + MEKi-resistant (dabrafenib and trametinib combination-resistant) A375 population): 17.9 nM
IC50 ([5]; A-375, read-out: Relative IC50, Month 1, BVD-523-escalated line): 8 nM
IC50 ([5]; A-375, read-out: Relative IC50, Month 1, Dab/523-escalated line): 68 nM
IC50 ([5]; A-375, read-out: Relative IC50, Month 1, Dab/Tram-escalated line): 58 nM
IC50 ([5]; A-375, read-out: Relative IC50, Month 1, Tram-escalated line): 29 nM
IC50 ([5]; A-375, read-out: Relative IC50, Month 1, Tram/523-escalated line): 11 nM
IC50 ([5]; A-375, read-out: Relative IC50, Month 2, BVD-523-escalated line): 697 nM
IC50 ([5]; A-375, read-out: Relative IC50, Month 2, Dab-escalated line): 11.5 nM
IC50 ([5]; A-375, read-out: Relative IC50, Month 2, Dab/523-escalated line): 218 nM
IC50 ([5]; A-375, read-out: Relative IC50, Month 2, Dab/Tram-escalated line): 256 nM
IC50 ([5]; A-375, read-out: Relative IC50, Month 2, Tram/523-escalated line): 68 nM
IC50 ([5]; A-375, read-out: Relative IC50, Month 3, BVD-523-escalated line): 18.4 nM
IC50 ([5]; A-375, read-out: Relative IC50, Month 3, Dab-escalated line): 2.5 nM
IC50 ([5]; A-375, read-out: Relative IC50, Month 3, Dab/523-escalated line): 337 nM
IC50 ([5]; A-375, read-out: Relative IC50, Month 3, Dab/Tram-escalated line): 17.9 nM
IC50 ([5]; A-375, read-out: Relative IC50, Month 3, Tram/523-escalated line): 73 nM

IC50 [5, 13]: 3.5 nM
IC50 [5, 14]: 3.5 nM
IC50 [5, 15]: 3.4 nM
IC50 [5, 16]: 4.7 nM
IC50 [5, 17]: 8.9 nM
IC50 [5, 18]: 4.7 nM
IC50 [5, 19]: 8.9 nM
Structure (SMILES): CC(=O)O[C@H]1C(=O)[C@@]2(C)[C@H]([C@H](OC(=O)c3ccccc3)[C@]3(O)C[C@H](OC(=O)[C@H](O)[C@@H](NC(=O)c4ccccc4)c4ccccc4)C(C)=C1C3(C)C)[C@]1(OC(C)=O)CO[C@@H]1C[C@@H]2O [Paclitaxel]
IC50 [1]: 2 nM
IC50 [2]: 1.9 nM
IC50 [3]: 2 nM
IC50 [4]: 2 nM
sensitivity after knock-in of KRAS mutant alleles [12]: unaltered
Fold Change of IC50 [5]: +1.8 fold
